Several values for one entry are separate records, joined by “and”; a condition that tells them apart may be missing. Identical values can stand only once. Like-named read-outs stand apart in the source and are kept apart here.
Key:
[1] = system: representative EVs and RVs; assay type: cell-based
PV-1 = test: microbe, parasite or virus in culture; assay type: cell-based, poliovirus 1; details: Enterovirus C
EV-D68 = test: microbe, parasite or virus in culture; assay type: cell-based, enterovirus D68; details: for EC50: Enterovirus D
human SERT = target: T1, human SERT (Homo sapiens, UniProt P31645); assay type: cell-based; details: for SERT, Mean (Figure 8B): Control = 100.00; for SERT, Mean as % (Figure 8B): Control = 100%
T1 construct: expressed in transfected cells; host or cells: HEK293 (gift of Dr. Hoener, F. Hoffmann-La Roche)

HRV-B14 = test: microbe, parasite or virus in culture; assay type: cell-based, human rhinovirus; details: Human rhinovirus sp.
CV-B3 [2] = test: microbe, parasite or virus in culture; assay type: cell-based, coxsackievirus B3; details: Enterovirus B
human DAT = target: T2, human DAT (Homo sapiens, UniProt Q01959); assay type: cell-based; details: for DAT, Mean (Figure 8B): Control = 100; for DAT, Mean as % (Figure 8B): Control = 100%
T2 construct: expressed in transfected cells; host or cells: HEK293 (gift of Dr. Hoener, F. Hoffmann-La Roche)

CV-A24v = test: microbe, parasite or virus in culture; assay type: cell-based, coxsackievirus A24v
HRV-A2 = test: microbe, parasite or virus in culture; assay type: cell-based, human rhinovirus; details: Human rhinovirus sp., HRVA2, HeLa R19, read-out: EC50 HRV-A2
EV-A71 = test: microbe, parasite or virus in culture; assay type: cell-based, enterovirus A71; details: Enterovirus A
human NET = target: T3, human NET (Homo sapiens, UniProt P23975); assay type: cell-based; details: for NET, Mean (Figure 8B): Control = 100; for NET, Mean as % (Figure 8B): Control = 100%
T3 construct: expressed in transfected cells; host or cells: HEK293 (gift of Dr. Hoener, F. Hoffmann-La Roche)

CV-A24 = test: microbe, parasite or virus in culture; assay type: cell-based, coxsackievirus A24
CV-B3 [3] = test: microbe, parasite or virus in culture; assay type: cell-based, coxsackievirus B3; details: Enterovirus B, CVB3, BGM

T1 sequence (P31645 whole entry): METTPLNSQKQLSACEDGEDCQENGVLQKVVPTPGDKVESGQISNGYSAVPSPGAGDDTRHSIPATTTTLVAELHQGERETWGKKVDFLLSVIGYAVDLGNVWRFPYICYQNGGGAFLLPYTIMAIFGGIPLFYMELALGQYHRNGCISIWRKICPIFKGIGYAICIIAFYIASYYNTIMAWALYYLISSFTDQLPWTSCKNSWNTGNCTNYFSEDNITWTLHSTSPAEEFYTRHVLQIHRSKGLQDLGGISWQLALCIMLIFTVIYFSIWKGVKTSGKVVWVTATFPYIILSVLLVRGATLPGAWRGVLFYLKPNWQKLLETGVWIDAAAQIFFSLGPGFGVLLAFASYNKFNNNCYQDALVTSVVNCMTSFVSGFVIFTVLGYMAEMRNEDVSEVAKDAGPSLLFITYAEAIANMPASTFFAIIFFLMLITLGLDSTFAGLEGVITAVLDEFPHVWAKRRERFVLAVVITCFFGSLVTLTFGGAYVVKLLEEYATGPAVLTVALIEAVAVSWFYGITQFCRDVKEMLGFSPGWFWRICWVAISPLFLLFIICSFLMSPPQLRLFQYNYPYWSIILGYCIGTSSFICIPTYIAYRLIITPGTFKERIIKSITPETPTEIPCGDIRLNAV
T3 sequence (P23975 whole entry): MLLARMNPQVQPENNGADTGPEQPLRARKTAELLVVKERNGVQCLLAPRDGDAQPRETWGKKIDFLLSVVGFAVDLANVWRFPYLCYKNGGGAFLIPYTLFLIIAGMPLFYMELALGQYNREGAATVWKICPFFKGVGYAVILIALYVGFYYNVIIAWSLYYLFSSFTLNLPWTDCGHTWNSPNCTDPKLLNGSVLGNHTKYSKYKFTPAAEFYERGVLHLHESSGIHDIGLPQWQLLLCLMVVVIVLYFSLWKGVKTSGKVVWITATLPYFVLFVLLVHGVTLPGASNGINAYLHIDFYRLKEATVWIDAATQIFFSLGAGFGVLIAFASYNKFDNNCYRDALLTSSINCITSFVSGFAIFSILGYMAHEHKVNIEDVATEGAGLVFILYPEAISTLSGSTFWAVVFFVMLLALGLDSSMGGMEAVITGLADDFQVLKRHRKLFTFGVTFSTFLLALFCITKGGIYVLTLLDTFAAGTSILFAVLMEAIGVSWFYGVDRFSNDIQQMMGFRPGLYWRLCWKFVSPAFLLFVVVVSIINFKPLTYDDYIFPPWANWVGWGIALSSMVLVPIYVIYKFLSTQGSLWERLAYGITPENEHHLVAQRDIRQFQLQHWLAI
T2 sequence (Q01959 whole entry): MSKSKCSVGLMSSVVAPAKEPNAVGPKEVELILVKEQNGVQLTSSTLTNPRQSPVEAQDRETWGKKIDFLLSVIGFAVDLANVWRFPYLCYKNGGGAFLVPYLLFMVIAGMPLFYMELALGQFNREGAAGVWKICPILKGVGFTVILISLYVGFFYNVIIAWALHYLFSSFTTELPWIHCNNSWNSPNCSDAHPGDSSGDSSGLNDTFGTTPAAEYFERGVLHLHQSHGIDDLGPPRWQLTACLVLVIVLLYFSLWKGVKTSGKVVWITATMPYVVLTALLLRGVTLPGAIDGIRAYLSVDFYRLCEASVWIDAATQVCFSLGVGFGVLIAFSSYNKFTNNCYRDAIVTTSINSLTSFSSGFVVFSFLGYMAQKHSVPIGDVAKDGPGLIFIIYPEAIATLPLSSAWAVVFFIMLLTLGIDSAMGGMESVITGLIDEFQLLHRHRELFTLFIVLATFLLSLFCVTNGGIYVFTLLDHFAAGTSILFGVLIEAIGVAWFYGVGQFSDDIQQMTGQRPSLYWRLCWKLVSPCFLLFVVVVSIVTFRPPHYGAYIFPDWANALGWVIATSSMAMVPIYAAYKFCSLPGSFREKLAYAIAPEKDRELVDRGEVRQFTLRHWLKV

## O=C(c1ccco1)N(Cc1ccc(F)cc1)c1ccccc1 [Compound 19b, N-(4-Fluorobenzyl)-N-phenylfuran-2-carboxamide]
[1]
  inhibition of contemporary/clinical isolates of EV-A71, CV-A24v and EV-D68 (in words): inhibited all clinical isolates of EV-A71, CV-A24v, and EV-D68 tested
  spectrum of antiviral activity (in words): inhibited all representative EVs and RVs
PV-1; HeLa R19, read-out: EC50 Exp1
  EC50: 8.5 µM
PV-1; HeLa R19, read-out: EC50 Exp2
  EC50: 9.65 µM
PV-1; HeLa R19, read-out: EC50 PV-1
  EC50: 9.08 ± 0.54 µM
HeLa R19 cells
  cytotoxicity (in words): did not show any cytotoxicity
EV-D68
  cross-resistance of 19d-resistant EV-D68 virus pools (in words): cross-resistance
EV-D68; EVD68, HeLa R19, […], read-out: EC50 Exp1
  EC50: 1.87 µM
EV-D68; EVD68, HeLa R19, read-out: EC50 Average
  EC50: 0.83 µM
EV-D68; EVD68, HeLa R19, read-out: EC50 EV-D68
  EC50: 0.5 ± 0.26 µM
EV-D68; EVD68, HeLa R19, read-out: EC50 EV-D68 strain 4310900947
  EC50: 1.85 ± 0.18 µM
EV-D68; EVD68, HeLa R19, read-out: EC50 EV-D68 strain 4310901348
  EC50: 1.71 ± 0.68 µM
EV-D68; EVD68, HeLa R19, read-out: EC50 EV-D68 strain 4310902042
  EC50: 0.91 ± 0.92 µM
EV-D68; EVD68, HeLa R19, read-out: EC50 EV-D68 strain 4310902284
  EC50: 1.29 ± 0.21 µM
EV-D68; EVD68, HeLa R19, read-out: EC50 EV-D68 strain 4311000742
  EC50: 1.31 ± 0.9 µM
EV-D68; EVD68, HeLa R19, read-out: EC50 EV-D68 strain Fermon
  EC50: 0.58 ± 0.1 µM
EV-D68; EVD68 / genotype 2c, HeLa R19, read-out: EC50 EV-D68 WT
  EC50: 0.83 ± 0.09 µM
Human SERT; 1µM
  SERT, Mean (Figure 8B): 104.08
  SERT, Mean as % (Figure 8B): 104%
Human SERT; 100µM
  SERT, Mean (Figure 8B): 84.31
  SERT, Mean as % (Figure 8B): 84%
Human SERT; HEK293 cells expressing human SERT, 1 and 100 μM
  inhibition of SERT-mediated uptake (in words): neither 12a, 19b, 19d, nor the combined compound 12b inhibited
HRV-B14; HRVB14, HeLa R19, read-out: EC50 Exp1
  EC50: 11.1 µM
HRV-B14; HRVB14, HeLa R19, read-out: EC50 Exp2
  EC50: 9.9 µM
HRV-B14; HRVB14, HeLa R19, read-out: EC50 HRV-B14
  EC50: 10.5 ± 0.61 µM
CV-B3 [2]; CVB3, HAP1, read-out: EC50 Hap1 Average
  EC50: 0.35 µM
CV-B3 [2]; CVB3, HAP1, read-out: Exp 1 EC50 Hap1
  EC50: 0.15 µM
CV-B3 [2]; CVB3, HAP1, read-out: Exp 2 EC50 Hap1
  EC50: 0.55 µM
Human DAT; 1µM
  DAT, Mean (Figure 8B): 94.861
  DAT, Mean as % (Figure 8B): 95%
Human DAT; 100µM
  DAT, Mean (Figure 8B): 75.9783
  DAT, Mean as % (Figure 8B): 76%
Human DAT; HEK293 cells expressing human DAT, 1 μM or 100 μM
  inhibition of DAT function (in words): neither 12a, 19b, 19d, nor the combined compound 12b inhibited
CV-A24v; Coxsackievirus, HeLa R19, read-out: EC50 CV-A24v strain 110386
  EC50: 2.53 ± 0.45 µM
CV-A24v; Coxsackievirus, HeLa R19, read-out: EC50 CV-A24v strain 110389
  EC50: 5.65 ± 0.23 µM
CV-A24v; Coxsackievirus, HeLa R19, read-out: EC50 CV-A24v strain 110390
  EC50: 4.16 ± 0.17 µM
CV-A24v; Coxsackievirus, HeLa R19, read-out: EC50 CV-A24v strain 110392
  EC50: 4.35 ± 0.18 µM
CV-A24v; Coxsackievirus, HeLa R19, read-out: EC50 Exp2
  EC50: 2.98 µM
CV-A24v; read-out: EC50 Exp2
  EC50: 5.42 µM and 4.32 µM and 4.53 µM
HRV-A2
  EC50: 22.2 ± 0.61 µM
EV-A71; EVA71, HeLa R19, read-out: EC50 Average
  EC50: 2.02 µM
EV-A71; EVA71, HeLa R19, read-out: EC50 EV-A71
  EC50: 0.89 ± 0.09 µM
EV-A71; EVA71, HeLa R19, read-out: EC50 EV-A71 strain BrCr
  EC50: 1.12 ± 0.15 µM
EV-A71; EVA71, HeLa R19, read-out: EC50 EV-A71 strain TW/2728/04
  EC50: 2.1 ± 0.08 µM
EV-A71; EVA71, HeLa R19, read-out: EC50 EV-A71 strain TW/2945/98
  EC50: 2.02 ± 0.15 µM
EV-A71; EVA71, HeLa R19, read-out: EC50 EV-A71 strain TW/70811/08
  EC50: 0.92 ± 0.17 µM
EV-A71; EVA71, HeLa R19, read-out: EC50 EV-A71 strain TW/72232/04
  EC50: 3.83 ± 0.25 µM
EV-A71; EVA71, HeLa R19, read-out: EC50 EV-A71 strain TW/96016/08
  EC50: 1.89 ± 0.02 µM
EV-A71; EVA71 / genotype 2c, HeLa R19, read-out: EC50 EV-A71 WT
  EC50: 0.82 ± 0.12 µM
Human NET; 1µM
  NET, Mean (Figure 8B): 124.304
  NET, Mean as % (Figure 8B): 124%
Human NET; 100µM
  NET, Mean (Figure 8B): 113.384
  NET, Mean as % (Figure 8B): 113%
Human NET; HEK293 cells expressing human NET, 1 μM or 100 μM
  inhibition of NET function (in words): neither 12a, 19b, 19d, nor the combined compound 12b inhibited
CV-A24; Enterovirus C, CVA24, HeLa R19, read-out: EC50 CV-A24
  EC50: 6.39 ± 0.74 µM
CV-A24; Enterovirus C, CVA24, HeLa R19, read-out: EC50 CV-A24 strain Joseph
  EC50: 4.99 ± 0.61 µM
CV-A24; Enterovirus C, CVA24, HeLa R19, read-out: EC50 Exp1
  EC50: 5.65 µM
CV-A24; Enterovirus C, CVA24, HeLa R19, read-out: EC50 Exp2
  EC50: 7.12 µM
CV-A24; read-out: EC50 Exp1
  EC50: 4.38 µM
CV-A24; read-out: EC50 Exp2
  EC50: 5.6 µM
CV-B3 [3]; read-out: EC50 BGM Average
  EC50: 0.14 µM
CV-B3 [3]; read-out: Exp 1 EC50 BGM
  EC50: 0.18 µM
CV-B3 [3]; read-out: Exp 2 EC50 BGM
  EC50: 0.09 µM

Source: PMC7673538 (PLoS Biology, 2020)
